Patent publication US10519177B2, “Heterocyclic compounds and uses thereof” (Plexxikon Inc., priority 2013, dated 2019)
Where two headings read alike, the source gives them in different places.

Experiments:
[1] = biological target: BRD4-BD12 (1-477) (Homo sapiens (Human), UniProt O60885); assay: Alphascreen binding assay BRD4-BD12; conditions: BRD4(1 2) H4; read-out: Biochemical activity (IC50 μM) BRD4(1 2) H4
Method: Binding of compounds of formula (I) with bromodomain 2, 3 4 was assessed using Alphascreen binding assay. The inhibition of the interaction between bromodomain and its acetylated target protein (Filippakopoulos P et al. 2012) was measured quantitatively using recombinant BRD proteins, an acetylated Histone 4 peptide and AlphaScreen™ technology. In absence of inhibition the BRD protein bound to AlphaScreen™ nickel chelate acceptor beads can interact with the acetylated Histone 4 peptide which is immobilized by the AlphaScreen™ Streptavidin coated beads. This interaction brings donor and acceptor beads in proximity. The close proximity allows the singlet oxygen produced by laser excitation of the donor beads to reach the acceptor beads and generate a luminescence signal.
Recombinant human bromodomains containing the N-terminal bromodomain (BRD2-BD1 (71-194), BRD3-BD1 (24-144) and BRD4-BD1 (44-164)) or dual bromodomains (BRD4-BD12 (1-477), BRD4-BD12 (1-472)) were prepared and purified as described in protein expression and purification session. The peptide is human Histone H41-21K5AcK8AcK12AcK16Ac-Biotin (Anaspec CA, USA).
Protocol for BRD2, BRD3 and BRD4 assay: All components are prepared in buffer composed of 50 mM HEPES pH 7.5, 100 mM NaCl, 0.01% bovine serum albumin (“BSA”), 0.01% Triton X-100, 2 mM dithiothreitol (“DTT”). 7 μL of Bromodomain protein and 7 μL of peptide are added to wells containing 1 μL of various concentrations of test compounds of formula (I) or DMSO vehicle in an Alphaplate (PerkinElmer GA, USA) and incubated for 1 hour at room temperature. 4 μL donor and acceptor bead mixture is then added with final concentrations of 7.5 μg/ml. 30 minutes after bead addition, Alpha signal is read on the Envision spectrometer (λEx 680 nm, λEm 520-620 nm). Final concentrations of bromodomain proteins and peptide are as shown below.
All data was normalized to the mean of 16 high and 16 low control wells on each plate. A four parameter curve fit of the following formula was then applied: Y=a+(b−a)/(1+(x/c)^d) Where ‘a’ is the minimum, ‘b’ is the maximum, ‘c’ is the pIC50 and ‘d’ is the Hill slope. Protein Expression and Purification
Recombinant human bromodomains containing the N-terminal bromodomain (BRD2-BD1 (71-194), BRD3-BD1 (24-144) and BRD4-BD1 (44-164)) or dual bromodomains (BRD4-BD12 (1-477), BRD4-BD12 (1-472)) were expressed in E. coli cells (in a modified pET vector) with an N-terminal six-His tag and purified using a combination of both IMAC (Ni-affinity) and size exclusion chromatography steps.
Recombinant BRD proteins were expressed using the E. coli strain BL21-CodonPlus (DE3) (Agilent Technologies CA, USA). Cells were grown in Terrific Broth (TB) media to an OD600 of 1.2 at 37° C. at which temperature was reduced to 25° C., protein was induced with 1.0 mM ispropyl-β-D-thiogalactopyranoside (“IPTG”) for 12-18 hours and harvested by centrifugation at 8000×g for 20 minutes. Cells were re-suspended in 0.1M K2PO4 pH 8.0, 250 mM NaCl, 10% Glycerol, 0.75% NP-40, 25 mM Imidazole, 5 mM beta-mercaptoethanol (“BME”) with 0.2 mg/ml Lysosyme, 2.0 mM phenylmethanesulfonyl fluoride (“PMSF”), 25 μg/ml DNAse I, incubated on ice for 30 minutes and lyzed with a cell disruptor (MicroFluidics MA, USA). The lysate was clarified by centrifugation at 20,000×g for 2 hours. The protein was captured with Ni-NTA resin (Life Technologies, USA). Contaminating proteins were washed off with 25 mM Tris-HCl pH 8.3, 250 mM NaCl, 12% Glycerol and 50 mM Imidazole. Following 3× wash steps, protein was eluted step wise using a 50 mM HEPES pH 7.5, 500 mM NaCl and 400 mM Imidazole. The protein was further purified using Gel Filtration column 26/600 Superdex 200 (GE Biosciences NJ, USA) in 50 mM HEPES pH 7.5, 250 mM NaCl. The protein was aliquoted and flash-frozen in liquid Nitrogen.

[2] = system: MV-4-11 cells; assay: Oncology cell growth assay MV-4-11 (CellTiter Glo); format: cell-based; conditions: Homo sapiens, MV4-11, 72 h, read-out: Cell activity (IC50 μM) MV-4-11 3d-Growth
How it was run: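 Growth read by CellTiter Glo luminescence after 72 h compound treatment of MLL-AF4-bearing MV-4-11 cells (3000/well). Titration: 8 points, 1:3 steps, maximum 10 μM, 0.2% DMSO final. Data normalized to DMSO wells, four-parameter fit gives pIC50.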

| Compound | IC50 [1] [µM] | IC50 ([2]; MV-4-11, 3d growth) [µM] | IC50 [2] [µM] |
| --- | --- | --- | --- |
| CCOCc1ccc(-c2cn(CC3CCC(F)(F)CC3)c3cc(-c4c(C)noc4C)cnc23)cc1 [P-0909, 4-[1-[(4,4-difluorocyclohexyl)methyl]-3-[4-(ethoxymethyl)phenyl]pyrrolo[3,2-b]pyridin-6-yl]-3,5-dimethyl-isoxazole] | < 1 | < 1 |  |
| Cc1noc(C)c1-c1cnc2c(-c3ccc(COC(C)(C)C)cc3)cn(CC3CCC(F)(F)CC3)c2c1 [P-0910, 4-[3-[4-(tert-butoxymethyl)phenyl]-1-[(4,4-difluorocyclohexyl)methyl]pyrrolo [3,2-b]pyridin-6-yl]-3,5-dimethyl-isoxazole] | < 1 | < 1 |  |
| Cc1noc(C)c1-c1cnc2c(-c3ccc(C4(N)CC4)cc3)cn(CC3CCC(F)(F)CC3)c2c1 [P-0911, 1-[4-[1-[(4,4-difluorocyclohexyl)methyl]-6-(3,5-dimethylisoxazol-4-yl)pyrrolo[3,2-b]pyridin-3-yl]phenyl]cyclopropanamine] | < 1 | < 1 |  |
| Cc1noc(C)c1-c1cnc2c(-c3ccc(C(=O)O)cc3)cn(CC3(C)CCCCC3)c2c1 [P-0912, 4-[6-(3,5-dimethylisoxazol-4-yl)-1-[(1-methylcyclohexyl)methyl]pyrrolo [3,2-b]pyridin-3-yl]benzoic acid] | < 1 | < 1 |  |
| Cc1noc(C)c1-c1cnc2ccn(C(c3ccccc3)c3ccccn3)c2c1 (stereo not shown) [P-0913, 3,5-dimethyl-4-[1-[phenyl(2-pyridyl)methyl]pyrrolo[3,2-b]pyridin-6-yl]isoxazole] | < 1 | < 1 |  |
| COC(=O)c1ccc(-c2cn(CC3(C)CCCCC3)c3cc(-c4c(C)noc4C)cnc23)cc1 [P-0914, methyl 4-[6-(3,5-dimethylisoxazol-4-yl)-1-[(1-methylcyclohexyl)methyl]pyrrolo [3,2-b]pyridin-3-yl]benzoate] | < 1 | 1 to 10 |  |
| COC(=O)c1ccc(-c2cn(Cc3cccc(C)n3)c3cc(-c4c(C)noc4C)cnc23)cc1 [P-0915, methyl 4-[6-(3,5-dimethylisoxazol-4-yl)-1-[(6-methyl-2-pyridyl)methyl]pyrrolo[3,2-b]pyridin-3-yl]benzoate] | < 1 | < 1 |  |
| Cc1cccc(Cn2cc(-c3ccc(C(=O)O)cc3)c3ncc(-c4c(C)noc4C)cc32)n1 [P-0916, 4-[6-(3,5-dimethylisoxazol-4-yl)-1-[(6-methyl-2-pyridyl)methyl]pyrrolo[3,2-b]pyridin-3-yl]benzoic acid] | < 1 | < 1 |  |
| Cc1noc(C)c1-c1cnc2c(-c3ccc(C(=O)O)cc3)cn(Cc3ccc(F)cn3)c2c1 [P-0917, 4-[6-(3,5-dimethylisoxazol-4-yl)-1-[(5-fluoro-2-pyridyl)methyl]pyrrolo[3,2-b]pyridin-3-yl]benzoic acid] | < 1 | < 1 |  |
| COC(=O)c1ccc(-c2cn(Cc3ccc(F)cn3)c3cc(-c4c(C)noc4C)cnc23)cc1 [P-0918, methyl 4-[6-(3,5-dimethylisoxazol-4-yl)-1-[(5-fluoro-2-pyridyl)methyl]pyrrolo[3,2-b]pyridin-3-yl]benzoate] | < 1 | < 1 |  |
| COC(=O)c1ccc(-c2cn(Cc3ccccc3)c3cc(-c4c(C)noc4C)cnc23)cc1 [P-0919, methyl 4-[1-benzyl-6-(3,5-dimethylisoxazol-4-yl)pyrrolo[3,2-b]pyridin-3-yl]benzoate] | < 1 | < 1 |  |
| Cc1cccc(Cn2cc(I)c3ncc(-c4c(C)noc4C)cc32)n1 [P-0920, 4-[3-iodo-1-[(6-methyl-2-pyridyl)methyl]pyrrolo[3,2-b]pyridin-6-yl]-3,5-dimethyl-isoxazole] | < 1 | < 1 |  |
| COC(=O)c1ccc(-c2cn(Cc3ccccc3C#N)c3cc(-c4c(C)noc4C)cnc23)cc1 [P-0922, methyl 4-[1-[(2-cyanophenyl)methyl]-6-(3,5-dimethylisoxazol-4-yl)pyrrolo[3,2-b]pyridin-3-yl]benzoate] | < 1 | < 1 |  |
| Cc1noc(C)c1-c1cnc2c(-c3ccc(C(=O)O)cc3)cn(Cc3ccccc3C#N)c2c1 [P-0923, 4-[1-[(2-cyanophenyl)methyl]-6-(3,5-dimethylisoxazol-4-yl)pyrrolo[3,2-b]pyridin-3-yl]benzoic acid] | < 1 | < 1 |  |
| Cc1noc(C)c1-c1cnc2c(I)cn(Cc3ccccc3F)c2c1 [P-0924, 4-[1-[(2-fluorophenyl)methyl]-3-iodo-pyrrolo[3,2-b]pyridin-6-yl]-3,5-dimethyl-isoxazole] | < 1 | < 1 |  |
| COC(=O)c1ccc(-c2cn(Cc3ccccc3F)c3cc(-c4c(C)noc4C)cnc23)cc1 [P-0925, methyl 4-[6-(3,5-dimethylisoxazol-4-yl)-1-[(2-fluorophenyl)methyl]pyrrolo[3,2-b]pyridin-3-yl]benzoate] | < 1 | < 1 |  |
| Cc1noc(C)c1-c1cnc2c(-c3ccc(C(=O)O)cc3)cn(Cc3ccccc3F)c2c1 [P-0926, 4-[6-(3,5-dimethylisoxazol-4-yl)-1-[(2-fluorophenyl)methyl]pyrrolo[3,2-b]pyridin-3-yl]benzoic acid] | < 1 | < 1 |  |
| CCOP(=O)(OCC)c1ccc(-c2cn(C(C)c3ccccc3)c3cc(-c4c(C)noc4C)cnc23)cc1 (stereo not shown) [P-0927, 4-[3-(4-diethoxyphosphorylphenyl)-1-(1-phenylethyl)pyrrolo[3,2-b]pyridin-6-yl]-3,5-dimethyl-isoxazole] | < 1 |  | < 1 |
| Cc1noc(C)c1-c1cnc2c(-c3ccc(P(=O)(O)O)cc3)cn(C(C)c3ccccc3)c2c1 (stereo not shown) [P-0928, [4-[6-(3,5-dimethylisoxazol-4-yl)-1-(1-phenylethyl)pyrrolo[3,2-b]pyridin-3-yl]phenyl]phosphonic acid] | < 1 | 1 to 10 |  |
| COc1cccc(Cn2cc(I)c3ncc(-c4c(C)noc4C)cc32)n1 [P-0929, 4-[3-iodo-1-[(6-methoxy-2-pyridyl)methyl]pyrrolo[3,2-b]pyridin-6-yl]-3,5-dimethyl-isoxazole] | < 1 | < 1 |  |
| COC(=O)c1ccc(-c2cn(Cc3cccc(OC)n3)c3cc(-c4c(C)noc4C)cnc23)cc1 [P-0930, methyl 4-[6-(3,5-dimethylisoxazol-4-yl)-1-[(6-methoxy-2-pyridyl)methyl]pyrrolo[3,2-b]pyridin-3-yl]benzoate] | < 1 | 1 to 10 |  |
| COc1cccc(Cn2cc(-c3ccc(C(=O)O)cc3)c3ncc(-c4c(C)noc4C)cc32)n1 [P-0931, 4-[6-(3,5-dimethylisoxazol-4-yl)-1-[(6-methoxy-2-pyridyl)methyl]pyrrolo[3,2-b]pyridin-3-yl]benzoic acid] | < 1 | < 1 |  |
| COc1ccccc1Cn1cc(I)c2ncc(-c3c(C)noc3C)cc21 [P-0932, 4-[3-iodo-1-[(2-methoxyphenyl)methyl]pyrrolo[3,2-b]pyridin-6-yl]-3,5-dimethyl-isoxazole] | < 1 | < 1 |  |
